Literature values, collected in PubChem BioAssay AID1259409 (Chemical Carcinogenesis Research Information System (CCRIS), 2018).
Values joined by “and” are separate entries in the source; they are usually repeats but may differ in a detail not shown here. Equal entries are not always repeated.

Test system: rodent chemically induced tumor inhibition, incidence and multiplicity
Assay: CCRIS tumor inhibitor studies
Details: Carcinogen: N-NITROBIS(2-OXOPROPYL)AMINE, 60559-38-4, Route [Inhibitor]: ORAL, Species: HAMSTER, Promoter: NONE USED

CC1=C(/C=C/C(C)=C/C=C/C(C)=C/C(=O)Nc2ccccc2)C(C)(C)CCC1
tumour outcome (control, treated, inhibition, significance) (Dose [Inhibitor]: 0.5 OR 1.0 MMOL/KG DIET DAILY STARTING 1 WK AFTER CARCINOGEN TREATMENT AND CONTINUING THROUGH THE END OF THE STUDY (STUD, Strain/Sex: SYRIAN/FEMALE, Target Tissue: Type of Lesion: PANCREAS: DUCTULAR ADENOMA, Dose [Carcinogen]: 10 MG/KG BW ONCE): 5/23 (22%), 11/25 (44%), -100%, not significant | tumour outcome (control, treated, inhibition, significance) (Dose [Inhibitor]: 0.5 OR 1.0 MMOL/KG DIET DAILY STARTING 1 WK AFTER CARCINOGEN TREATMENT AND CONTINUING THROUGH THE END OF THE STUDY (STUD, Strain/Sex: SYRIAN/FEMALE, Target Tissue: Type of Lesion: PANCREAS: DUCTULAR ADENOMA, Dose [Carcinogen]: 40 MG/KG BW ONCE): 12/20 (60%), 18/26 (69%), -15%, not significant | tumour outcome (control, treated, inhibition, significance) (Dose [Inhibitor]: 0.5 OR 1.0 MMOL/KG DIET DAILY STARTING 1 WK AFTER CARCINOGEN TREATMENT AND CONTINUING THROUGH THE END OF THE STUDY (STUD, Strain/Sex: SYRIAN/FEMALE, Target Tissue: Type of Lesion: PANCREAS: DUCTULAR CARCINOMA, Dose [Carcinogen]: 10 MG/KG BW ONCE): 6/23 (27%), 2/25 (8%), 70%, not significant | tumour outcome (control, treated, inhibition, significance) (Dose [Inhibitor]: 0.5 OR 1.0 MMOL/KG DIET DAILY STARTING 1 WK AFTER CARCINOGEN TREATMENT AND CONTINUING THROUGH THE END OF THE STUDY (STUD, Strain/Sex: SYRIAN/MALE, Target Tissue: Type of Lesion: LIVER: BENIGN TUMOR, Dose [Carcinogen]: 40 MG/KG BW ONCE): 4/20 (20%), 12/26 (46%), -130%, not significant and 5/24 (21%), 17/39 (44%), -110%, p<0.05 | tumour outcome (control, treated, inhibition, significance) (Dose [Inhibitor]: 0.5 OR 1.0 MMOL/KG DIET DAILY STARTING 1 WK AFTER CARCINOGEN TREATMENT AND CONTINUING THROUGH THE END OF THE STUDY (STUD, Strain/Sex: SYRIAN/MALE, Target Tissue: Type of Lesion: PANCREAS: DUCTULAR ADENOMA, Dose [Carcinogen]: 10 MG/KG BW ONCE): 3/22 (14%), 14/31 (45%), -221%, p<0.05 | tumour outcome (control, treated, inhibition, significance) (Dose [Inhibitor]: 0.5 OR 1.0 MMOL/KG DIET DAILY STARTING 1 WK AFTER CARCINOGEN TREATMENT AND CONTINUING THROUGH THE END OF THE STUDY (STUD, Strain/Sex: SYRIAN/MALE, Target Tissue: Type of Lesion: PANCREAS: DUCTULAR ADENOMA, Dose [Carcinogen]: 40 MG/KG BW ONCE): 8/24 (33%), 19/37 (51%), -55%, not significant | tumour outcome (control, treated, inhibition, significance) (Dose [Inhibitor]: 0.5 OR 1.0 MMOL/KG DIET DAILY STARTING 1 WK AFTER CARCINOGEN TREATMENT AND CONTINUING THROUGH THE END OF THE STUDY (STUD, Strain/Sex: SYRIAN/MALE, Target Tissue: Type of Lesion: PANCREAS: DUCTULAR CARCINOMA, Dose [Carcinogen]: 10 MG/KG BW ONCE): 4/22 (18%), 3/31 (10%), 44%, not significant | tumour outcome (control, treated, inhibition, significance) (Dose [Inhibitor]: 0.5 OR 1.0 MMOL/KG DIET DAILY STARTING 1 WK AFTER CARCINOGEN TREATMENT AND CONTINUING THROUGH THE END OF THE STUDY (STUD, Strain/Sex: SYRIAN/MALE, Target Tissue: Type of Lesion: PANCREAS: DUCTULAR CARCINOMA, Dose [Carcinogen]: 40 MG/KG BW ONCE): 5/24 (21%), 15/37 (40%), -90%, not significant | tumour outcome (control, treated, inhibition, significance) (Dose [Inhibitor]: 0.5 OR 1 MMOL/KG DIET DAILY STARTING 1 WK AFTER CARCINOGEN TREATMENT AND CONTINUING THROUGH THE END OF THE STUDY (STUDY, Strain/Sex: SYRIAN/FEMALE, Target Tissue: Type of Lesion: PANCREAS: DUCTULAR CARCINOMA, Dose [Carcinogen]: 40 MG/KG BW ONCE): 6/20 (30%), 7/26 (27%), 10%, not significant | tumour outcome (control, treated, inhibition, significance) (Dose [Inhibitor]: 0.5 OR 1.0 MMOL/KG/D IN DIET STARTING 1 WK AFTER CARCINOGEN TREATMENT AND CONTINUING THROUGH THE END OF THE STUDY (STUDY, Strain/Sex: SYRIAN/FEMALE, Target Tissue: Type of Lesion: LIVER: BENIGN TUMOR, Dose [Carcinogen]: 40 MG/KG BW ONCE): 4/20 (20%), 12/26 (46%), -130%, not significant | tumour outcome (control, treated, inhibition, significance) (Dose [Inhibitor]: 0.5 OR 1.0 MMOL/KG/D IN DIET STARTING 1 WK AFTER CARCINOGEN TREATMENT AND CONTINUING THROUGH THE END OF THE STUDY (STUDY, Strain/Sex: SYRIAN/FEMALE, Target Tissue: Type of Lesion: PANCREAS: DUCTULAR ADENOMA, Dose [Carcinogen]: 10 MG/KG BW ONCE): 5/23 (22%), 11/25 (44%), -100%, not significant | tumour outcome (control, treated, inhibition, significance) (Dose [Inhibitor]: 0.5 OR 1.0 MMOL/KG/D IN DIET STARTING 1 WK AFTER CARCINOGEN TREATMENT AND CONTINUING THROUGH THE END OF THE STUDY (STUDY, Strain/Sex: SYRIAN/FEMALE, Target Tissue: Type of Lesion: PANCREAS: DUCTULAR ADENOMA, Dose [Carcinogen]: 40 MG/KG BW ONCE): 12/20 (60%), 18/26 (69%), -15%, not significant | tumour outcome (control, treated, inhibition, significance) (Dose [Inhibitor]: 0.5 OR 1.0 MMOL/KG/D IN DIET STARTING 1 WK AFTER CARCINOGEN TREATMENT AND CONTINUING THROUGH THE END OF THE STUDY (STUDY, Strain/Sex: SYRIAN/FEMALE, Target Tissue: Type of Lesion: PANCREAS: DUCTULAR CARCINOMA, Dose [Carcinogen]: 10 MG/KG BW ONCE): 6/23 (27%), 2/25 (8%), 70%, not significant | tumour outcome (control, treated, inhibition, significance) (Dose [Inhibitor]: 0.5 OR 1.0 MMOL/KG/D IN DIET STARTING 1 WK AFTER CARCINOGEN TREATMENT AND CONTINUING THROUGH THE END OF THE STUDY (STUDY, Strain/Sex: SYRIAN/FEMALE, Target Tissue: Type of Lesion: PANCREAS: DUCTULAR CARCINOMA, Dose [Carcinogen]: 40 MG/KG BW ONCE): 6/20 (30%), 7/26 (27%), 10%, not significant | tumour outcome (control, treated, inhibition, significance) (Dose [Inhibitor]: 0.5 OR 1.0 MMOL/KG/D IN DIET STARTING 1 WK AFTER CARCINOGEN TREATMENT AND CONTINUING THROUGH THE END OF THE STUDY (STUDY, Strain/Sex: SYRIAN/MALE, Target Tissue: Type of Lesion: LIVER: BENIGN TUMOR, Dose [Carcinogen]: 40 MG/KG BW ONCE): 5/24 (21%), 17/39 (44%), -110%, p<0.05 | tumour outcome (control, treated, inhibition, significance) (Dose [Inhibitor]: 0.5 OR 1.0 MMOL/KG/D IN DIET STARTING 1 WK AFTER CARCINOGEN TREATMENT AND CONTINUING THROUGH THE END OF THE STUDY (STUDY, Strain/Sex: SYRIAN/MALE, Target Tissue: Type of Lesion: PANCREAS: DUCTULAR ADENOMA, Dose [Carcinogen]: 10 MG/KG BW ONCE): 3/22 (14%), 14/31 (45%), -221%, p<0.05 | tumour outcome (control, treated, inhibition, significance) (Dose [Inhibitor]: 0.5 OR 1.0 MMOL/KG/D IN DIET STARTING 1 WK AFTER CARCINOGEN TREATMENT AND CONTINUING THROUGH THE END OF THE STUDY (STUDY, Strain/Sex: SYRIAN/MALE, Target Tissue: Type of Lesion: PANCREAS: DUCTULAR ADENOMA, Dose [Carcinogen]: 40 MG/KG BW ONCE): 8/24 (33%), 19/37 (51%), -55%, not significant | tumour outcome (control, treated, inhibition, significance) (Dose [Inhibitor]: 0.5 OR 1.0 MMOL/KG/D IN DIET STARTING 1 WK AFTER CARCINOGEN TREATMENT AND CONTINUING THROUGH THE END OF THE STUDY (STUDY, Strain/Sex: SYRIAN/MALE, Target Tissue: Type of Lesion: PANCREAS: DUCTULAR CARCINOMA, Dose [Carcinogen]: 10 MG/KG BW ONCE): 4/22 (18%), 3/31 (10%), 44%, not significant | tumour outcome (control, treated, inhibition, significance) (Dose [Inhibitor]: 0.5 OR 1.0 MMOL/KG/D IN DIET STARTING 1 WK AFTER CARCINOGEN TREATMENT AND CONTINUING THROUGH THE END OF THE STUDY (STUDY, Strain/Sex: SYRIAN/MALE, Target Tissue: Type of Lesion: PANCREAS: DUCTULAR CARCINOMA, Dose [Carcinogen]: 40 MG/KG BW ONCE): 5/24 (21%), 15/37 (40%), -90%, not significant
